Active and inactive are the calls of the source.
How the values were obtained:
Staphylococcus aureus = assay: Antibacterial activity against Staphylococcus aureus at 64 ug/ml after 20 hrs; type: functional, organism-based
[1] = biological target: T1, 3-oxoacyl-[acyl-carrier-protein] synthase 2 (Staphylococcus aureus) (UniProt Q5TKS0); assay: Inhibition of Staphylococcus aureus […] assessed as [2-14C]-malonyl CoA incorporation after 90 mins by cell free-based scintillation counting
T1 sequence (whole entry): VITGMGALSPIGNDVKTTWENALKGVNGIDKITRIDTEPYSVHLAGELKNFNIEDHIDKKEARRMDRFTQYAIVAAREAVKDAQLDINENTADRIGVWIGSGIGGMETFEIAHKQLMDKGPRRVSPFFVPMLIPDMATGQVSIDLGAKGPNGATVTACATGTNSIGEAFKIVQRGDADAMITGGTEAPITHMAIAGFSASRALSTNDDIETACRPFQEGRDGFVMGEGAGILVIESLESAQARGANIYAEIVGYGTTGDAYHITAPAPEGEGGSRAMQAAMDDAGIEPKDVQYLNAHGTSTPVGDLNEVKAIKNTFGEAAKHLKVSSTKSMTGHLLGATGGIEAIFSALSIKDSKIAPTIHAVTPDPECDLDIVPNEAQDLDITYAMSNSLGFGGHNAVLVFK

Enterococcus faecium = assay: Antibacterial activity against Enterococcus faecium at 64 ug/ml after 20 hrs; type: functional, organism-based
Escherichia coli = assay: Antibacterial activity against Escherichia coli at 64 ug/ml after 20 hrs; type: functional, organism-based
Haemophilus influenzae = assay: Antibacterial activity against Haemophilus influenzae at 64 ug/ml after 20 hrs; type: functional, organism-based
Streptococcus pneumoniae = assay: Antibacterial activity against Streptococcus pneumoniae at 64 ug/ml after 20 hrs; type: functional, organism-based
Enterococcus faecalis = assay: Antibacterial activity against Enterococcus faecalis at 64 ug/ml after 20 hrs; type: functional, organism-based

COC(=O)c1ccc(O)c(NC(=O)CC[C@]2(C)C(=O)C=CC34CC(CCC32)C(O)(CO)C4)c1O (some centres not stated)
inactive: Activity (Staphylococcus aureus) | inhibition [1] | Activity (Enterococcus faecium) | Activity (Escherichia coli) | Activity (Haemophilus influenzae) | Activity (Streptococcus pneumoniae) | Activity (Enterococcus faecalis)

C=C1CC23C=CC(=O)[C@@](C)(CCC(=O)Nc4c(O)ccc(C(=O)O)c4O)C2CC1C[C@H]3O (some centres not stated)
inactive: Activity (Staphylococcus aureus) | inhibition [1] | Activity (Enterococcus faecium) | Activity (Escherichia coli) | Activity (Haemophilus influenzae) | Activity (Streptococcus pneumoniae) | Activity (Enterococcus faecalis)

C=C1CC23C=CC(=O)[C@@](C)(CCC(=O)Nc4c(O)ccc(C(=O)OC)c4O)C2CC1[C@@H](O)C3 (some centres not stated)
inactive: Activity (Staphylococcus aureus) | inhibition [1] | Activity (Enterococcus faecium) | Activity (Escherichia coli) | Activity (Haemophilus influenzae) | Activity (Streptococcus pneumoniae) | Activity (Enterococcus faecalis)

CC12C[C@@]34C=CC(=O)[C@@](C)(CCC(=O)Nc5c(O)ccc(C(=O)O)c5O)C3[C@H](CC1C4)O2 (some centres not stated)
inactive: Activity (Staphylococcus aureus) | Activity (Enterococcus faecium) | Activity (Escherichia coli) | Activity (Haemophilus influenzae) | Activity (Streptococcus pneumoniae) | Activity (Enterococcus faecalis)

C[C@@]12C[C@@]34C=CC(=O)[C@@](C)(CCC(=O)O)C3[C@H](CC1C4)O2 (some centres not stated)
inactive: Activity (Staphylococcus aureus) | inhibition [1] | Activity (Enterococcus faecium) | Activity (Escherichia coli) | Activity (Haemophilus influenzae) | Activity (Streptococcus pneumoniae) | Activity (Enterococcus faecalis)

COC(=O)c1ccc(O)c(NC(=O)CC[C@]2(C)C(=O)C=CC34C[C@@]5(C)O[C@@H](CC5[C@H]3O)C42)c1O (some centres not stated)
inactive: Activity (Staphylococcus aureus) | inhibition [1] | Activity (Enterococcus faecium) | Activity (Escherichia coli) | Activity (Haemophilus influenzae) | Activity (Streptococcus pneumoniae) | Activity (Enterococcus faecalis)

C=C1CC23C=CC(=O)[C@@](C)(CCC(=O)Nc4c(O)ccc(C(=O)OC)c4O)C2CC1C[C@H]3O (some centres not stated)
inactive: Activity (Staphylococcus aureus) | inhibition [1] | Activity (Enterococcus faecium) | Activity (Escherichia coli) | Activity (Haemophilus influenzae) | Activity (Streptococcus pneumoniae) | Activity (Enterococcus faecalis)

COC(=O)c1ccc(O)c(NC(=O)CC[C@]2(C)C(=O)C=C[C@]34CC5C[C@H](O[C@]5(C)C3)C42)c1O (some centres not stated)
inactive: Activity (Staphylococcus aureus) | inhibition [1] | Activity (Enterococcus faecium) | Activity (Escherichia coli) | Activity (Haemophilus influenzae) | Activity (Streptococcus pneumoniae) | Activity (Enterococcus faecalis)

COC(=O)[C@H](CCC(N)=O)NC(=O)/C(C)=C/CC[C@]1(C)C(=O)C=C[C@]23CC4C[C@H](O[C@]4(C)C2)C31 (some centres not stated)
inactive: Activity (Staphylococcus aureus) | inhibition [1] | Activity (Enterococcus faecium) | Activity (Escherichia coli) | Activity (Haemophilus influenzae) | Activity (Streptococcus pneumoniae) | Activity (Enterococcus faecalis)

COC(=O)c1ccc(O)c(NC(=O)CC[C@]2(C)C(=O)C=C[C@]34CC5C[C@H](O[C@]5(C)C3O)C42)c1O (some centres not stated)
inactive: Activity (Staphylococcus aureus) | inhibition [1] | Activity (Enterococcus faecium) | Activity (Escherichia coli) | Activity (Haemophilus influenzae) | Activity (Streptococcus pneumoniae) | Activity (Enterococcus faecalis)

C[C@@]1(CCC(=O)Nc2c(O)ccc(C(=O)O)c2O)C(=O)C=CC23CC(CCC21)C(O)(CO)C3 (some centres not stated)
inactive: Activity (Staphylococcus aureus) | inhibition [1] | Activity (Enterococcus faecium) | Activity (Escherichia coli) | Activity (Haemophilus influenzae) | Activity (Streptococcus pneumoniae) | Activity (Enterococcus faecalis)

C[C@@]12C[C@@]34C=CC(=O)[C@@](C)(CCC(=O)Nc5c(O)ccc6c(=O)[nH]c(=O)oc56)C3[C@H](CC1C4)O2 (some centres not stated)
inactive: Activity (Staphylococcus aureus) | inhibition [1] | Activity (Enterococcus faecium) | Activity (Escherichia coli) | Activity (Haemophilus influenzae) | Activity (Streptococcus pneumoniae) | Activity (Enterococcus faecalis)

C[C@@]12C[C@@]34C=CC(=O)[C@@](C)(CCC(=O)Nc5c(O)cccc5O)C3[C@H](CC1C4)O2 (some centres not stated)
inactive: Activity (Staphylococcus aureus) | inhibition [1] | Activity (Enterococcus faecium) | Activity (Escherichia coli) | Activity (Haemophilus influenzae) | Activity (Streptococcus pneumoniae) | Activity (Enterococcus faecalis)

C[C@@]12C[C@]34CC1C[C@H](O2)C3[C@](C)(CCC(=O)Nc1c(O)ccc(C(=O)O)c1O)C(=O)C[C@H]4O (some centres not stated)
inactive: Activity (Staphylococcus aureus) | inhibition [1] | Activity (Enterococcus faecium) | Activity (Escherichia coli) | Activity (Haemophilus influenzae) | Activity (Streptococcus pneumoniae) | Activity (Enterococcus faecalis)

C=C1C2CCC3(C=CC(=O)[C@@](C)(CCC(=O)Nc4c(O)ccc(C(=O)O)c4O)C3C2)[C@H]1O (some centres not stated)
inactive: Activity (Staphylococcus aureus) | inhibition [1] | Activity (Enterococcus faecium) | Activity (Escherichia coli) | Activity (Haemophilus influenzae) | Activity (Streptococcus pneumoniae) | Activity (Enterococcus faecalis)

C/C(=C\CC[C@]1(C)C(=O)C=C[C@]23CC4C[C@H](O[C@]4(C)C2)C31)C(=O)N[C@@H](CCC(N)=O)C(=O)O (some centres not stated)
inactive: Activity (Staphylococcus aureus) | inhibition [1] | Activity (Enterococcus faecium) | Activity (Escherichia coli) | Activity (Haemophilus influenzae) | Activity (Streptococcus pneumoniae) | Activity (Enterococcus faecalis)

C=C1C[C@@]23C=CC(=O)[C@@](C)(CCC(=O)Nc4c(O)ccc(C(=O)O)c4O)[C@@H]2C[C@@H]1CC3
inactive: Activity (Staphylococcus aureus) | Activity (Enterococcus faecium) | Activity (Escherichia coli) | Activity (Haemophilus influenzae) | Activity (Streptococcus pneumoniae) | Activity (Enterococcus faecalis)

Source: ChEMBL document CHEMBL1773043, “Platensimycin and platencin congeners from Streptomyces platensis” (J Nat Prod, 2011)
